Values of other authors, collected in paper PMC4303313 (Biochemistry, 2014).

Assays:
reduced RNase = target: T1, reduced RNase (Bos taurus, UniProt P61823)
T1 sequence (P61823 27-150): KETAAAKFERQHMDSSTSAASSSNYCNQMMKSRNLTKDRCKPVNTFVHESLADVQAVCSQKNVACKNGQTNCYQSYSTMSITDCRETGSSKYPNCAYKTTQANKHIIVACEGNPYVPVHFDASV

reduced RfBP = target: T2, reduced RfBP (Gallus gallus, UniProt P02752); conditions: no GSH
T2 sequence (P02752 18-238): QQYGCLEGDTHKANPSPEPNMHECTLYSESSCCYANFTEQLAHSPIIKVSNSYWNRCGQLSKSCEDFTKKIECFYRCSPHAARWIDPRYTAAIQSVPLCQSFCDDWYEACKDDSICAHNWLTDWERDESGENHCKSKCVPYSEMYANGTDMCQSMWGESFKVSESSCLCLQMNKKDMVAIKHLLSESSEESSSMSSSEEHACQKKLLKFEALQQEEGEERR

SMILES: C[As](O)O [MMA]
- formation of filamentous deposits from reduced RNase (reduced RNase; no GSH): led to the formation of filamentous deposits
- formation of aggregates from reduced RNase (reduced RNase; reduced RNase and GSH): do not appear
- effect on ability of reoxidized RfBP to rebind riboflavin (reduced RfBP): profoundly attenuated
